The source of these data is patent US5935973A, “Heterocyclcarboxamide derivatives and their use as therapeutic agents” (Knoll Aktiengesellschaft, priority 1995, dated 1999).

The target of one test is T1, 5-HT1A receptors (Rattus norvegicus, UniProt P19327).
T1 construct: Hippocampal tissue from the brains of male Sprague-Dawley rats; from tissue; host or cells: rat hippocampus membranes
T1 sequence (P19327 1-422): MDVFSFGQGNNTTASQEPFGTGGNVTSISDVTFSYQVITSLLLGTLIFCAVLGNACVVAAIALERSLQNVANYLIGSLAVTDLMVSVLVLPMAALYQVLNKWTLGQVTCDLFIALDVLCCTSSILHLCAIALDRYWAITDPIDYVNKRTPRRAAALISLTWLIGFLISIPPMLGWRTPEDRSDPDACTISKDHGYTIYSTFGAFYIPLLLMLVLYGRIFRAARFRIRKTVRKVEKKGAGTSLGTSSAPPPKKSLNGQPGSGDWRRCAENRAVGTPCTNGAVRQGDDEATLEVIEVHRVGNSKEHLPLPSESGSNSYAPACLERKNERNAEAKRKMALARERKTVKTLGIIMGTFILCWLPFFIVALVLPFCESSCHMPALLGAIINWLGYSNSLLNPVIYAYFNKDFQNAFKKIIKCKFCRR
Description: inhibition of [3H]8-OH-DPAT binding to 5-HT1A receptors in rat hippocampal tissue. The conditions noted are these: at 10^-6 M; rat hippocampus, [3H]8-OH-DPAT; read-out: % displacement of radio ligand, 5-HT1A. Here is the method:
Hippocampal tissue from the brains of male Sprague-Dawley rats (Charles River; weight range 150-250 g) was homogenised in ice-cold 50 mM Tris-HCl buffer (pH 7.7 when measured at 25° C., 1:40 w/v) and centrifuged at 30,000 g at 4° C. for 10 minutes. The pellet was rehomogenised in the same buffer, incubated at 37° C. for 10 minutes and centrifuged at 30,000 g at 4° C. for 10 minutes. The final pellet was resuspended in 50 mM Tris-HCl buffer (pH 7.7) containing 4 mM CaCl2, 0.1% L-ascorbic acid and 10 μM pargyline hydrochloride (equivalent to 6.25 mg wet weight of tissue/ml) and used immediately in the binding assay. Aliquots (400 μl; equivalent to 2.5 mg wet weight of tissue/tube) of this suspension were added to tubes containing the ligand (50 μl; 2 nM) and distilled water (50 μl total binding) or 5-HT (50 μl; 10 μM; non-specific binding) or test compound (50 μl; at a single concentration of 10^-6 M or at 10 concentrations ranging from 10^-11 -10^-3 M). The ligand was [^3 H]8-hydroxy-2-(dipropylamino)tetralin ([^3 H]8-OH-DPAT) and the mixture was incubated at 25° C. for 30 minutes before the incubation was terminated by rapid filtration.
(§1) The filters were washed with ice-cold Tris-HCl buffer and dried. The filters were punched out into vials, scintillation fluid added and radioactivity determined by liquid scintillation counting. The percentage displacement of specific binding of the tritiated ligand was calculated for the single concentration (10^-6 M) of test compound. Displacement curves were then produced for those compounds which displaced ≥50% of specific binding of the tritiated ligand at 10^-6 M using a range of concentrations of the compound. The concentration which gave 50% inhibition of specific binding (IC50) was obtained from the curve. The inhibition coefficient Ki was then calculated using the formula [formula] in which [ligand] is the concentration of the tritiated ligand used and KD is the equilibrium dissociation constant for the ligand.

A further test has as its system α1-adrenoceptors. Description: inhibition of [7-methoxy-3H]prazosin binding to α1-adrenoceptors in rat whole cortical tissue. Conditions: at 10^-6 M; rat whole cortex, [7-methoxy-3H]prazosin; 30 min, 1 µM. Here is the method: Whole cortical tissue from the brains of male Charles River CD rats weighing between 150-250 g were homogenised in ice-cold 50 mM Tris-HCl, pH 7.6 (at 25° C.; 1:40 w/v) and centrifuged at 1000 g at 4° C. for 10 minutes. The supernatant was centrifuged at 30,000 g at 4° C. for 10 minutes. The pellet was rehomogenised in 50 mM Tris-HCl, pH 7.6 (1:40 w/v) and centrifuged at 30,000 g at 4° C. for 10 minutes. The final pellet was resuspended in 50 mM Tris-HCl, pH 7.6 (equivalent to 12.5 mg wet weight of tissue/ml) and used immediately in the binding assay. Aliquots (400 μl; equivalent to 5 mg wet weight of tissue/tube) of this suspension were added to tubes containing the ligand (50 μl; 0.1 nM) and distilled water (50 μl; total binding) or phentolamine (50 μl; 5 μM; non-specific binding) or test compound (50 μl; at a single concentration of 10^-6 M or at 10 concentrations ranging from 10^-11 -10^-3 M). The ligand was [7-methoxy-^3 H]prazosin and the mixture was incubated at 30° C. for 30 minutes before the incubation was terminated by rapid filtration.
as §1

The next test deals with T2, D2 dopamine receptors (Rattus norvegicus, UniProt P61169).
T2 construct: Striatal tissue from the brains of male Charles River CD rats; from tissue; host or cells: rat striatum membranes
T2 sequence (P61169 whole entry): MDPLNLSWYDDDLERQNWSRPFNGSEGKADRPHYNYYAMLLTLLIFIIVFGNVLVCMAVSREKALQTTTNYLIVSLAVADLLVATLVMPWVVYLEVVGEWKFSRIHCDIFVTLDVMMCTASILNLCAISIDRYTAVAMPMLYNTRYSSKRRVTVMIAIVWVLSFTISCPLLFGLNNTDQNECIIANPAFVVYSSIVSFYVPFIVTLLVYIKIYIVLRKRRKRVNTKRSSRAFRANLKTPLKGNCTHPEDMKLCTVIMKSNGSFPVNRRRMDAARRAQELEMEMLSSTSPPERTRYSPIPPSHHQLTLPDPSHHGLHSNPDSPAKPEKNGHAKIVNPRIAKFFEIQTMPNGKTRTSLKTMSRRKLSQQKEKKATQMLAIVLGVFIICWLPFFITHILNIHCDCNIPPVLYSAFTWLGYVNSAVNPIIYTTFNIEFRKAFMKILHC
Description: inhibition of tritiated (S)-sulpiride binding to D2 dopamine receptors in rat striatal tissue. Conditions: at 10^-6 M; rat striatum, tritiated (S)-sulpiride; read-out: % displacement of radio ligand, D2. Here is the method:
Striatal tissue from the brains of male Charles River CD rats weighing between 140-250 g were homogenised in ice-cold 50 mM Tris-HCl buffer (pH 7.7 when measured at 25° C.) and centrifuged at 40,000 g for 10 minutes. The pellet was resuspended in Tris salts buffer (50 mM Tris-HCl buffer containing 120 mM NaCl, 5 mM KCl, 2 mM CaCl2 and 1 mM MgCl2 with the addition of 6 mM ascorbic acid; pH 7.7 when measured at 25° C.), and again centrifuged at 40,000 g for 10 minutes. The final pellet was stored at -80° C. Before each test the pellet was resuspended in Tris salts buffer (equivalent to 2 mg wet weight of tissue/ml). Aliquots (720 μl; equivalent to 1.44 mg wet weight of tissue/tube) of this suspension were then added to tubes containing the ligand (40 μl; 1 nM) and Tris salts buffer (40 μl; total binding) or spiroperidol (40 μl; 10 nM; non-specific binding) or test compound (40 μl; at a single concentration of 10^-6 M or at 6 concentrations ranging from 10^-11 -10^-4 M). The ligand was tritiated (S)-sulpiride and the mixture was incubated at 4° C. for 40 minutes before the incubation was terminated by rapid filtration.
The filters were washed with ice-cold Tris-HCl buffer and dried. The filters were punched out in to vials, scintillation fluid added and were left for about 20 hours before being counted by scintillation spectrophotometry. The percentage displacement of specific binding of the tritiated ligand was calculated for the single concentration (10^-6 M) of test compound. Displacement curves were then produced over a range of concentrations for those compounds which displaced ≥50% of specific binding of the tritiated ligand at 10^-6 M. The concentration which gave a 50% inhibition of specific binding (IC50) was obtained from the curve. The inhibition coefficient Ki was then calculated using the formula [formula] in [ligand] is the concentration of the tritiated ligand used and KD is the 2 equilibrium dissociation constant for the ligand.

SMILES strings stand for the structures.

As for `O=C(NCC1CCN(C[C@H]2COc3cccc(Cl)c3O2)CC1)c1ccc(-n2cccc2)nc1` [Example 50, (S)-N-{[1-(8-chloro-1,4-benzodioxan-2-ylmethyl)-4-piperidyl)methyl}-6-(1-pyrrolyl)pyridine-3-carboxamide], the inhibition at 1 µM turned out to be 97% at 5-HT1A receptors and 101% on D2 dopamine receptors. In the test on α1-adrenoceptors, the “% displacement of radio ligand, α1” value was 98%.

As for `CSc1ncccc1C(=O)NCC1CCN(C[C@H]2COc3cccc(Cl)c3O2)CC1` [Example 51], the inhibition at 1 µM at 5-HT1A receptors came out at 95%; at D2 dopamine receptors, 101%. Moreover, in the test on α1-adrenoceptors, the “% displacement of radio ligand, α1” value stood at 98%.

Take `O=C(NCC1CCN(C[C@H]2COc3cccc(Cl)c3O2)CC1)c1cncc(Br)c1` [Example 52, (S)-5-bromo-N-{[1-(8-chloro-1,4-benzodioxan-2-ylmethyl)-4-piperidyl]methyl}pyridine-3-carboxamide]: the inhibition at 1 µM on 5-HT1A receptors turned out to be 95%; at D2 dopamine receptors, 101%. Further, in the test on α1-adrenoceptors, the “% displacement of radio ligand, α1” value was 97%.
